From patent EP4534577A1, “NON-TOXIC LATENT POLYMERIZATION CATALYSTS FOR POLYURETHANES BASED ON TIN (IV) CHELATE COMPLEXES” (Tech Synt Ltd, priority 2023, dated 2025) come the findings set out here.

A short description of data set [1]: Gelation time in polyurethane synthesis model reaction with tin catalyst. The following applies: for Catalyst effect 65°C: gel time with no catalyst (2580 seconds) divided by gel time with 0.5 mol % of the catalyst; for Catalyst effect 90C: gel time with no catalyst (750 seconds) divided by gel time with 0.5 mol % of the catalyst; for Latency: latent if gelation did not occur at room temperature for two hours at a catalyst concentration of 1 mol%; for Gelation time In argon t, s (65ºC) / Gelation time On air t, s (65ºC): 65 °C; for Gelation time In argon t, s (90ºC) / Gelation time On air t, s (90ºC): 90 °C. As to the method:
A method for using the above-mentioned tin(IV) complexes to produce polyurethane is described in the following. The method consists of adding a solution of the above-mentioned catalyst in an organic solvent (THF) to a two-component mixture at a given temperature. The method is explained by examples of its implementation: Specifically, to a vigorously stirred solution of 4.5 ml (5.1 g, 8.4 mmol) polyethyleneglycol-600 1.35 ml (1.40 g, 8.3 mmol), hexamethylene diisocyanate was added (temperature control was performed by thermostating the reaction mixture at room temperature, 65°C, 90°C before adding the catalyst), and then the solution of the catalyst to be tested in 0.25 ml in THF was added as fast as possible. The flask with the reactants then was put into an oil bath at room temperature, 65°C or 90°C (depending on the experiment), and then time count was started. The end of reaction was defined as the stop of the magnetic stirrer. The time from start to stop is taken as the gelation time. Experiments conducted in air and in an inert gas atmosphere at different temperatures were compared.
The molar concentration of the catalyst is given with respect to the molar amount of the polyisocyanate. Table 1: Gelation time with selected tin catalysts.

Data set [2] in a line: Solubility of catalyst in organic solvents. The format is physicochemical.
Data set [3] is described as follows: Stability in ambient / moist air (visible change of powder on dry surface). It counts as physicochemical. The following applies: for Air stability: powder poured onto a dry surface, left in ambient air. The text has this: (§1) The alkoxy-based tin complexes (DMAE)2Sn(OtBu)2 and (DMAEIDE)Sn(OtBu)2 were obtained using procedures similar to the synthesis of the phenoxy-complexes. These complexes are stable under dry conditions.
(§2) Of special stability are complexes based on tetradentate Salen and Salan type ligands such as: […]

Data set [4] is described as follows: Stability on dissolution in wet organic solvent. The format is physicochemical. The following applies: wet / moist organic solvent.
Source text: as §1, §2

With `CC(C)(C)[O][Sn]1([O]C(C)(C)C)[O]c2c(cc(C(C)(C)C)cc2C(C)(C)C)CN2CCN(CC2)Cc2cc(C(C)(C)C)cc(C(C)(C)C)c2[O]1`, in data set [1], the “Catalyst effect 65°C” value stood at 5.7, the “Catalyst effect 90C” value is on record as 2.8 and the Latency result was “yes”. For the same compound, in data set [2], the “Solubility Alkanes” value is “+- (less than 0.01 mol/L)”; the “Solubility CH2Cl2/CHCl3” value was “+++ (higher than 1.0 mol/L)”; the “Solubility PhMe” value is on record as “+++ (higher than 1.0 mol/L)”; the “Solubility THF” value was “++ (between 0.1 and 1.0)”. Also, in data set [3], the Air stability entry is listed as “excellent (Excellent stability was attributed to compounds for which no visible change was found within 24 hours)”.
On to `CN1Cc2cc(C(C)(C)C)cc(C(C)(C)C)c2[O][Sn]2([O]c3c(cc(C(C)(C)C)cc3C(C)(C)C)C1)[O]c1c(cc(C(C)(C)C)cc1C(C)(C)C)CN(C)Cc1cc(C(C)(C)C)cc(C(C)(C)C)c1[O]2`, for which, in data set [1], the “Catalyst effect 65°C” value is 2.4, the “Catalyst effect 90C” value amounted to 3.8 and the Latency entry was “yes”. For the same compound, in data set [2], the “Solubility Alkanes” value was “++ (between 0.1 and 1.0)”; the “Solubility CH2Cl2/CHCl3” value is given as “+++ (higher than 1.0 mol/L)”; the “Solubility PhMe” value is given as “+++ (higher than 1.0 mol/L)”; the “Solubility THF” value is given as “+++ (higher than 1.0 mol/L)”. Further, in data set [3], the Air stability entry is listed as “good (If there was no visible change within an hour, such as discoloration or melting into droplets due to hygroscopicity, then the stability of the compound was considered good)”.
On to `C1=NCC[O][Sn]2([O]CCN=Cc3ccccc3[O]2)[O]c2ccccc21` (stereo not drawn), for which, in data set [1], the “Catalyst effect 65°C” value worked out at 12.3, the “Catalyst effect 90C” value was 6.3 and the Latency result was “yes”. Moreover, in data set [2], the “Solubility Alkanes” value is “+- (less than 0.01 mol/L)”; the “Solubility CH2Cl2/CHCl3” value is listed as “+- (less than 0.01 mol/L)”; the “Solubility PhMe” value is “+ (between 0.01 and 0.1 mol/L)”; the “Solubility THF” value is “+ (between 0.01 and 0.1 mol/L)”. Moreover, the Air stability result in data set [3] is recorded as “good (If there was no visible change within an hour, such as discoloration or melting into droplets due to hygroscopicity, then the stability of the compound was considered good)”.
For `CN(C)CC[O][Sn]([O]CCN(C)C)([O]C(C)(C)C)[O]C(C)(C)C` [(DMAE)2Sn(OtBu)2, reference compound], the “gel time compared with no catalyst” value in data set [1] (0.1 mol% concentration, under air) is reported as “the same as for no catalyst”. In addition, in data set [1] (c 0.1 % mol.), the “Gelation time In argon t, s (65ºC)” value turned out to be 410 s; the “Gelation time In argon t, s (90ºC)” value was 185 s; the “Gelation time On air t, s (65ºC)” value amounted to 2580 s; the “Gelation time On air t, s (90ºC)” value was found to be 750 s. Moreover, in data set [1] (c 1 % mol.), the “Gelation time In argon t, s (65ºC)” value amounted to 230 s; the “Gelation time In argon t, s (90ºC)” value was 150 s; the “Gelation time On air t, s (65ºC)” value came to 540 s; the “Gelation time On air t, s (90ºC)” value was determined as 280 s. Further, in data set [3], the Hygroscopicity entry was “rather hygroscopic”. The “Visible change of powder in moist air” value in data set [3] (powder poured on a dry surface in moist air) is reported as “change their appearance within half an hour”. In data set [4], the “Decomposition on dissolution in wet organic solvent” value is on record as “instantly leads to the decomposition”.
